Measured values published in the NIST ThermoML archive (doi:10.1016/j.jct.2015.08.024).
± gives the expanded uncertainty stated by the source.

Conditions: Liquid, Closed cell (Static) method

| vapor or sublimation pressure (323.15 K) | vapor or sublimation pressure (333.15 K) | vapor or sublimation pressure (343.15 K) | vapor or sublimation pressure (353.15 K) | SMILES |
| --- | --- | --- | --- | --- |
| 344.4 ± 1.6 kPa | 463.2 ± 1.9 kPa | 609.8 ± 2.4 kPa | 789.8 ± 2.9 kPa | FC(F)CC(F)(F)F [1,1,1,3,3-pentafluoropropane] |
| 1177.3 ± 3.7 kPa | 1500.6 ± 4.7 kPa | 1886.8 ± 5.9 kPa | 2342.7 ± 7.3 kPa | CC(F)F [1,1-difluoroethane] |
